Molecules are shown by their SMILES. Starred links: 1 amine or outer side, 2 acyl side, 3 side chain; linkers in the order of their positions; H or OH if unused. Non-standard residues stand in square brackets, D forms with d. Residues, ends and D or L forms follow the SMILES beside them. Chg = N[C@H](C(=O)O)C1CCCCC1; Suc = O=C(CCC(=O)[*:2])[*:1]

The nature of assay [1]: Inhibition of HCV NS3 protease by FRET assay. More on the design: species or system Hepacivirus hominis.
Assay [2] relates to Hepatitis C virus. Put plainly: Antiviral activity against HCV in replicon assay. It counts as functional, Hepacivirus hominis. The following applies: read-out: ED50 (the source's name). For orientation: In antiviral work, replicon cells carry a viral genome segment that copies itself.
The subject of assay [3] is Hepatitis C virus. Put plainly: Inhibition of HCV 1b NS3 protease. More on the design: species or system Hepatitis C virus subtype 1b.
The next assay addresses NS3 (Hepatitis C virus, UniProt A3EZJ3). Put plainly: Inhibition of HCV 1a NS3 protease. The arrangement: species or system Hepatitis C virus subtype 1a.

Chain of NS3 (A3EZJ3 whole entry): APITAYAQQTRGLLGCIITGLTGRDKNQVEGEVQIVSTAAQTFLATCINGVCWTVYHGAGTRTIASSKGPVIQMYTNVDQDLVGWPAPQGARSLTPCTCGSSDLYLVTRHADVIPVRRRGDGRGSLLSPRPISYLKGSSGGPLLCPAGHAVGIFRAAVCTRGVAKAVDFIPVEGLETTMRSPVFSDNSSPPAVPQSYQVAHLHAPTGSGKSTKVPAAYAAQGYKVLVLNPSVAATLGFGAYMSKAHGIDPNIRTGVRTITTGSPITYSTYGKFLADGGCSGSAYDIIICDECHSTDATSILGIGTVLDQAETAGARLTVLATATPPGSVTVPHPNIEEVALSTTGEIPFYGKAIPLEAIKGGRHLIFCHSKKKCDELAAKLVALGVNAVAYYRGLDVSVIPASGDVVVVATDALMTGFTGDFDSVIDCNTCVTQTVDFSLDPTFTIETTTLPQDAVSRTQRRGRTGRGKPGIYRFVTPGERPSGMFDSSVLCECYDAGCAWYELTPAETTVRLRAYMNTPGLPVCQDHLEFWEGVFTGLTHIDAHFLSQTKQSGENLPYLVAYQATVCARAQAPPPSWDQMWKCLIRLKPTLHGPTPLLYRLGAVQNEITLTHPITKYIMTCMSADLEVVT

A word on the Ki: it is a measure of affinity in units of concentration, obtained from inhibition or displacement. Low readings indicate tighter binding, high ones weaker binding. In the case of `COc1ccc2c(Oc3ccc([C@@H]4NC(=O)[C@@H](NC(=O)OC(C)(C)C)CCCCC/C=C\[C@@H]5C[C@@]5(C(=O)O)NC4=O)cc3)cc(-c3ccccc3)nc2c1`, affinity in assay [1] was put at a Ki of 790 nM. Further, in the assay on Hepatitis C virus [2], the EC50 is more than 10000 nM.

Turning to `COc1ccc2c(O[C@@H]3C[C@H]4C(=O)N[C@]5(C(=O)O)C[C@H]5/C=C\CCCCC[C@H](NC(=O)OC5CCCC5)C(=O)N4C3)cc(-c3csc(NC(C)C)n3)nc2c1` [CILUPREVIR], the inhibition constant (Ki) in the assay with Hepatitis C virus [3] was 0.66 nM; on NS3 it was 0.3 nM.

As to `C=C[C@@H]1C[C@]1(NC(=O)[C@H](NC(=O)[C@@H](NC(=O)OC(C)(C)C)C(C)C)c1ccc(Oc2cc(-c3ccccc3)nc3cc(OC)ccc23)cc1)C(=O)NS(=O)(=O)c1ccccc1`, in assay [1], the Ki was found to be 400 nM. In the assay with Hepatitis C virus [2], the EC50 was more than 10000 nM.

`CC(C)(C)OC(=O)N[C@H]1CCCCC/C=C\[C@@H]2C[C@@]2(C(=O)O)NC(=O)[C@H](c2ccc(Oc3nc(-c4ccncc4)cc4ccccc34)cc2)NC1=O` displayed a Ki in assay [1] of 1300 nM.

For the compound `CC(C)(C)OC(=O)N[C@H]1CCCCC/C=C\[C@@H]2C[C@@]2(C(=O)O)NC(=O)[C@H](c2ccc(Oc3nc(Cl)cc4ccccc34)cc2)NC1=O`, the Ki in assay [1] was determined as 1100 nM.

On to `C=C[C@@H]1C[C@]1(NC(=O)[C@@H](NC(=O)[C@@H](NC(=O)OC(C)(C)C)C(C)(C)C)c1ccc(Oc2ccccn2)cc1)C(=O)NS(=O)(=O)C1CC1`, for which the Ki in assay [1] was 7000 nM.

For the compound `C=C[C@@H]1C[C@]1(NC(=O)[C@@H](NC(=O)[C@@H](NC(=O)OC(C)(C)C)C(C)(C)C)c1ccc(Oc2cc(-c3ccccc3)nc3cc(OC)ccc23)cc1)C(=O)NS(=O)(=O)C1CC1`, the Ki in assay [1] stood at 180 nM. The EC50 with Hepatitis C virus [2] was more than 10000 nM.

As to `COc1ccc2c(Oc3ccc([C@H](NC(=O)[C@@H](NC(=O)OC(C)(C)C)C(C)(C)C)C(=O)NC4(C(=O)NS(=O)(=O)c5ccccc5)CC4)cc3)cc(-c3ccccc3)nc2c1`, the Ki in assay [1] was found to be 1200 nM. For the same compound, the EC50 with Hepatitis C virus [2] is more than 10000 nM.

The compound `COc1ccc2c(Oc3ccc([C@@H]4NC(=O)[C@@H](NC(=O)OC(C)(C)C)CCCCC/C=C\[C@@H]5C[C@@]5(C(=O)NS(=O)(=O)c5ccccc5)NC4=O)cc3)cc(-c3ccccc3)nc2c1` came in with a Ki in assay [1] of 95 nM. For the same compound, the EC50 with Hepatitis C virus [2] was more than 10000 nM.

Regarding `C=C[C@@H]1C[C@]1(NC(=O)[C@@H](NC(=O)[C@@H](NC(=O)OC(C)(C)C)C(C)C)c1ccc(Oc2cc(-c3ccccc3)nc3cc(OC)ccc23)cc1)C(=O)NS(=O)(=O)c1ccccc1`, the Ki in assay [1] is 270 nM. The EC50 with Hepatitis C virus [2] is more than 10000 nM.

In assay [1], `CCC[C@H](NC(=O)[C@@H](NC(=O)[C@@H](NC(=O)OC(C)(C)C)C(C)(C)C)c1ccc(Oc2cc(-c3ccccc3)nc3cc(OC)ccc23)cc1)C(=O)NS(=O)(=O)c1ccccc1` returned a Ki of 230 nM. In addition, the EC50 with Hepatitis C virus [2] is more than 10000 nM.

Regarding `CC(C)(C)OC(=O)N[C@H]1CCCCC/C=C\[C@@H]2C[C@@]2(C(=O)NS(=O)(=O)C2CC2)NC(=O)[C@H](c2ccc(Oc3nc(Cl)cc4ccccc34)cc2)NC1=O`, the Ki in assay [1] came out at 74 nM. Further, the EC50 with Hepatitis C virus [2] is more than 10000 nM.

For the compound `COc1ccc2c(Oc3ccc([C@@H]4NC(=O)[C@@H](NC(=O)OC(C)(C)C)CCCCC/C=C\[C@@H]5C[C@@]5(C(=O)NS(=O)(=O)C5CC5)NC4=O)cc3)cc(-c3ccccc3)nc2c1`, the Ki in assay [1] was found to be 76 nM. Besides, the EC50 with Hepatitis C virus [2] was 4600 nM.

In the case of `CC[C@H](C)[C@H](NC(=O)[C@@H](NC(=O)CCC(=O)O)C1CCCCC1)C(=O)N1CCC[C@H]1C(=O)N[C@@H](CS)C(=O)O` (Suc-[Chg]IPC-OH), the Ki in assay [1] worked out at 23000 nM.

Compound `C=C[C@@H]1C[C@]1(NC(=O)[C@@H](NC(=O)[C@@H](NC(=O)OC(C)(C)C)C(C)(C)C)c1ccc(Oc2nc(-c3ccncc3)cc3ccccc23)cc1)C(=O)NS(=O)(=O)C1CC1` showed a Ki in assay [1] of 290 nM. Besides, the EC50 in the assay on Hepatitis C virus [2] was more than 10000 nM.

In assay [1], `CCC[C@H](NC(=O)[C@@H](NC(=O)[C@@H](NC(=O)OC(C)(C)C)C(C)C)c1ccc(O)cc1)C(=O)NS(=O)(=O)c1ccccc1` came in with an inhibition constant (Ki) of 130000 nM.

Turning to `C=C[C@@H]1C[C@]1(NC(=O)C(NC(=O)[C@@H](NC(=O)OC(C)(C)C)C(C)C)c1ccc(Oc2cc(-c3ccccc3)nc3cc(OC)ccc23)cc1)C(=O)O` (stereo partly specified), the Ki in assay [1] was 2400 nM. In addition, the EC50 in the assay with Hepatitis C virus [2] turned out to be 8500 nM.

On to `C=C[C@@H]1C[C@]1(NC(=O)[C@@H]1C[C@@H](Oc2cc(-c3ccccc3)nc3cc(OC)ccc23)CN1C(=O)[C@@H](NC(=O)OC(C)(C)C)C(C)C)C(=O)NS(=O)(=O)c1ccccc1`, for which the affinity in assay [1], expressed as Ki, was 0.76 nM.

In the case of `COc1ccc2c(Oc3ccc(C(NC(=O)[C@@H](NC(=O)OC(C)(C)C)C(C)(C)C)C(=O)N[C@@H](CC(F)F)C(=O)O)cc3)cc(-c3ccccc3)nc2c1` (stereo partly specified), in assay [1], the Ki was 2800 nM.

The compound `CC[C@@H](C)[C@H](NC(=O)[C@@H](NC(=O)CCC(=O)O)C1CCCCC1)C(=O)N[C@H](C(=O)N[C@@H](CS)C(=O)O)c1ccccc1` gave a Ki in assay [1] of 1000 nM. Compared with the last compound, the Ki is about 2.8-fold lower.

Compound `CCC[C@H](NC(=O)[C@@H]1C[C@@H](Oc2cc(-c3ccccc3)nc3cc(OC)ccc23)CN1C(=O)[C@@H](NC(=O)OC(C)(C)C)C(C)C)C(=O)NS(=O)(=O)c1ccccc1` returned a Ki in assay [1] of 300 nM.

`C=C[C@@H]1C[C@]1(NC(=O)[C@@H](NC(=O)[C@@H](NC(=O)OC(C)(C)C)C(C)(C)C)c1ccc(Oc2cc(-c3ccccc3)nc3cc(OC)ccc23)cc1)C(=O)NS(=O)(=O)c1ccccc1` showed a Ki in assay [1] of 230 nM. In the assay on Hepatitis C virus [2], the EC50 is more than 10000 nM.

Consider `CCC[C@H](NC(=O)[C@@H](NC(=O)[C@@H](NC(=O)OC(C)(C)C)C(C)C)c1ccc(Oc2cc(-c3ccccc3)nc3cc(OC)ccc23)cc1)C(=O)NS(=O)(=O)c1ccccc1`, for which, in assay [1], affinity was put at a Ki of 280 nM.

`C=C[C@@H]1C[C@]1(NC(=O)[C@H](NC(=O)[C@@H](NC(=O)OC(C)(C)C)C(C)(C)C)c1ccc(Oc2nc(Cl)cc3ccccc23)cc1)C(=O)NS(=O)(=O)C1CC1` came in with a Ki in assay [1] of 1100 nM. Against the preceding compound, the Ki is about 3.9-fold higher.

Turning to `C=C[C@@H]1C[C@]1(NC(=O)[C@H](NC(=O)[C@@H](NC(=O)OC(C)(C)C)C(C)(C)C)c1ccc(OC)cc1)C(=O)NS(=O)(=O)C1CC1`, the affinity in assay [1], expressed as Ki, was 34000 nM.

`C=C[C@@H]1C[C@]1(NC(=O)[C@@H](NC(=O)[C@@H](NC(=O)OC(C)(C)C)C(C)(C)C)c1ccc(OC)cc1)C(=O)NS(=O)(=O)C1CC1` displayed a Ki in assay [1] of 5400 nM.

In the case of `C=C[C@@H]1C[C@]1(NC(=O)[C@@H](NC(=O)[C@@H](NC(=O)OC(C)(C)C)C(C)(C)C)c1ccc(Oc2cccc(Cl)n2)cc1)C(=O)NS(=O)(=O)C1CC1`, the affinity in assay [1] corresponds to a Ki of 2600 nM.

`C=C[C@@H]1C[C@]1(NC(=O)[C@@H](NC(=O)[C@@H](NC(=O)OC(C)(C)C)C(C)(C)C)c1ccc(Oc2nc(Cl)cc3ccccc23)cc1)C(=O)NS(=O)(=O)C1CC1`: the Ki in assay [1] was determined as 410 nM. The EC50 in the assay with Hepatitis C virus [2] is more than 10000 nM.

In assay [1], `COc1ccc2c(Oc3ccc([C@H](NC(=O)[C@@H](NC(=O)OC(C)(C)C)C(C)(C)C)C(=O)N[C@@H](CC(F)F)C(=O)NS(=O)(=O)C4CC4)cc3)cc(-c3ccccc3)nc2c1` registered a Ki of 780 nM. In the assay on Hepatitis C virus [2], the EC50 is more than 10000 nM.

In turn, `C=C[C@@H]1C[C@]1(NC(=O)[C@@H](NC(=O)[C@@H](NC(=O)OC(C)(C)C)C(C)C)c1ccc(Oc2cc(-c3ccccc3)nc3cc(OC)ccc23)cc1)C(=O)NS(=O)(=O)C1CC1` showed a Ki in assay [1] of 200 nM.

`CC(C)(C)OC(=O)N[C@H]1CCCCC/C=C\[C@@H]2C[C@@]2(C(=O)NS(=O)(=O)C2CC2)NC(=O)[C@H](c2ccc(Oc3nc(-c4ccncc4)cc4ccccc34)cc2)NC1=O` gave an inhibition constant (Ki) in assay [1] of 240 nM. The Ki values of the last two compounds are within 1.5-fold of each other.

(Values after ChEMBL document CHEMBL1146301, “Phenylglycine as a novel P2 scaffold in hepatitis C virus NS3 protease inhibitors” (Bioorg Med Chem, 2007).)
